In general, IC50 refers to the concentration needed to halve the response being measured.

This is an account of results in US9637491B2, “Pyrazolo[4,3-D]pyrimidines as kinase inhibitors” (Origenis GmbH, priority 2012, dated 2017).

For this assay, the target named is T1, SYK kinase (Homo sapiens, UniProt P43405).
T1 construct: purchased Invitrogen, Carlsbad
Kind of assay: SYK assay (OMNIA Kinase Assay, Invitrogen). It is filed as biochemical. Conditions: SYK Activities; 1 mM ATP, 10 μM Omnia Peptide Substrate Tyr 7, 30° C. On the procedure: In the assay OMNIA® KINASE ASSAY by Invitrogen Corporation (Carlsbad) the effect of invention of a compound on the phosphorylation is determined by measurement of fluorescence intensity of a chelation-enhanced fluorophore called SOX. Upon phosphorylation of the peptide by the kinase of interest, Mg2+ is chelated to form a bridge between the SOX moiety and the phosphate group that is transferred to the specific tyrosine on the peptide. The fluorescence intensity is directly proportional to the amount of peptide phosphorylation.
To the wells of an 384 well small volume plate (Greiner, Frickenhausen) are added (i) the compound under test in 5% DMSO/distilled water (2 μl), (ii) 16 μl of the master mix containing ATP, DTT, Kinase Reaction Buffer, Omina Peptide Substrate Tyr 7 resulting in a final concentration of 1 mM ATP, 0.2 mM DTT and 10 μM Peptide Substrate. The Master Mix and the assay plate was incubated to reaction temperature before the measurement (30° C.). The reaction was started with addition of (iii) 2 μl 4 μg/ml SYK kinase (Invitrogen, Carlsbad). During measurement fluorescence intensitiy readings were collected using a TECAN M1000 at a wavelength of λex 360/λem 485 nm every 30 s for 30 minutes. The reaction velocity was plotted versus the inhibitor concentration to determine the IC50 using XLFit 5.0 (IDBS, Guildford) to fit to a sigmoidal dose response curve.

Compound `COc1ccc(Nc2nc(C3CCCCCC3)nc3cn[nH]c23)cc1OC` [Example 388, 5-cycloheptyl-N-(3,4-dimethoxyphenyl)-1H-pyrazolo[4,3-d]pyrimidin-7-amine] registered a half-inhibitory concentration (IC50) of 100 to 1000 nM.
Then `CC(=O)N1CCC(n2cc(Nc3nc(-c4nc5ccccc5s4)nc4cn[nH]c34)cn2)CC1` [Example 458, 1-(4-(4-((5-(benzo[d]thiazol-2-yl)-1H-pyrazolo[4,3-d]pyrimidin-7-yl)amino)-1H-pyrazol-1-yl)piperidin-1-yl)ethan-1-one], with less than 10 nM; and `CC(=O)N1CCN(c2ccc(Nc3nc(-c4cnn(C)c4)nc4cn[nH]c34)cc2)CC1` [Example 187, 1-(4-(4-((5-(1-methyl-1H-pyrazol-4-yl)-1H-pyrazolo[4,3-d]pyrimidin-7-yl)amino)phenyl)piperazin-1-yl)ethan-1-one], with 10 to 100 nM.
The value for `CC(C(=O)O)n1cc(Nc2nc(C3CC3)nc3cn[nH]c23)cn1` (centres unmarked) [Example 504, 2-(4-((5-cyclopropyl-1H-pyrazolo[4,3-d]pyrimidin-7-yl)amino)-1H-pyrazol-1-yl)propanoic acid] was 100 to 1000 nM.
On to `CC(C)n1cc(Nc2nc(-c3ncco3)nc3cn[nH]c23)cn1` [Example 250, N-(1-isopropyl-1H-pyrazol-4-yl)-5-(oxazol-2-yl)-1H-pyrazolo[4,3-d]pyrimidin-7-amine], for which the IC50 is 100 to 1000 nM.
The value for `COc1cc(Nc2nc(-c3ccccc3F)nc3cn[nH]c23)ccc1N1CCOCC1` [Example 25, 5-(2-fluorophenyl)-N-(3-methoxy-4-morpholinophenyl)-1H-pyrazolo[4,3-d]pyrimidin-7-amine] was 10 to 100 nM.
The value for `c1nn(C2CC2)cc1Nc1nc(C2CC2)nc2cn[nH]c12` [Example 282, 5-cyclopropyl-N-(1-cyclopropyl-1H-pyrazol-4-yl)-1H-pyrazolo[4,3-d]pyrimidin-7-amine] was 10 to 100 nM; that for `Cc1nn(C(C)C)cc1Nc1nc(-c2ccoc2)nc2cn[nH]c12` [Example 292, 5-(furan-3-yl)-N-(1-isopropyl-3-methyl-1H-pyrazol-4-yl)-1H-pyrazolo[4,3-d]pyrimidin-7-amine] was 100 to 1000 nM; that for `CC(=O)N1CCC(n2cc(Nc3nc(-c4cnn(C)c4)nc4cn[nH]c34)cn2)CC1` [Example 189, 1-(4-(4-((5-(1-methyl-1H-pyrazol-4-yl)-1H-pyrazolo[4,3-d]pyrimidin-7-yl)amino)-1H-pyrazol-1-yl)piperidin-1-yl)ethan-1-one] was less than 10 nM.
Turning to `COCCCn1cc(Nc2nc(-c3cccc(S(N)(=O)=O)c3)nc3cn[nH]c23)cn1` [Example 424, 3-(7-((1-(3-methoxypropyl)-1H-pyrazol-4-yl)amino)-1H-pyrazolo[4,3-d]pyrimidin-5-yl)benzenesulfonamide], the half-inhibitory concentration (IC50) fell in the range of 100 to 1000 nM.
`CC(C)(C)N1CCC(n2cc(Nc3nc(-c4nc5c(s4)CCCC5)nc4cn[nH]c34)cn2)CC1` [Example 495, N-(1-(1-(tert-butyl)piperidin-4-yl)-1H-pyrazol-4-yl)-5-(4,5,6,7-tetrahydrobenzo[d]thiazol-2-yl)-1H-pyrazolo[4,3-d]pyrimidin-7-amine] showed an IC50 of 10 to 100 nM.
The value for `CC(C)(C)OC(=O)N1CCC(n2cc(Nc3nc(-c4ccco4)nc4cn[nH]c34)cn2)C1` (centres unmarked) [Example 453, tert-butyl 3-(4-((5-(furan-2-yl)-1H-pyrazolo[4,3-d]pyrimidin-7-yl)amino)-1H-pyrazol-1-yl)pyrrolidine-1-carboxylate] was 100 to 1000 nM.
The value for `c1nn(C2CCOCC2)cc1Nc1nc(C2CCC2)nc2cn[nH]c12` [Example 119, 5-cyclobutyl-N-(1-(tetrahydro-2H-pyran-4-yl)-1H-pyrazol-4-yl)-1H-pyrazolo[4,3-d]pyrimidin-7-amine] was 10 to 100 nM; that for `CC(=O)N1CCC(n2cc(Nc3nc(C(C)C)nc4cn[nH]c34)cn2)CC1` [Example 186, 1-(4-(4-((5-isopropyl-1H-pyrazolo[4,3-d]pyrimidin-7-yl)amino)-1H-pyrazol-1-yl)piperidin-1-yl)ethan-1-one] was 100 to 1000 nM.
